pEC50, pIC50: −log10 of the molar value.
What was measured:
[1] = biological target: T1, K-Ras G12C (Homo sapiens, UniProt P01116, G12C); assay: Western blot assay for in cell alkylation of K-Ras G12C (HCC1171 cells); type: cell-based; parameters: endogenous in cells; host or cells: HCC1171; conditions: 18 hours at 37° C., 7 point dose response
Procedure: Western Blot Assay for in Cell Alkylation of K-Ras G12C
HCC1171 cells were maintained in RPMI1640 supplemented with 10% FBS. Cells were plated in a 96-well plate at 20,000 cells/well and the following day compounds were added to the cells. After 18 hours at 37° C., cells were lysed in RIPA buffer (Sigma R0278) with 0.5% SDS and protease/phosphatase inhibitor cocktail. After through mixing to enable complete lysis, the lysates were cleared by centrifugation before 20 μl was transferred from each well and combined with loading buffer and reducing agent. After heating for 10 minutes at 95° C., 15 μl of each sample was loaded onto a 4-20% Tris-Glycine gel and electrophoresed at 110V for 165 minutes in SDS-PAGE running buffer. Gels were transferred to a nitrocellulose membrane, blocked for 1 hour and stained overnight at 4° C. with primary antibody against K-Ras (polyclonal Proteintech 12063-1-AP). The membrane was then washed thoroughly and counterstained with anti-rabbit IRDye 800CW (LI-COR 926-32211) for one hour at room temperature. After final washes, the membrane was imaged on a LI-COR Odyssey CLx at medium resolution. Alkylated K-Ras was visible by an electrophoretic shift from unmodified K-Ras. To quantify this affect, the LICOR software was used to draw a rectangle over alkylated and unalkylated bands for each well and measured the total fluorescent intensity (FI) in each of these bands. The following formula was then used to calculate % alkylation: FI(alkylated)/(FI(alkylated)+FI(unalkylated))*100 for each well.
A 7 point dose response curve was used to determine the IC50 for each compound. Cell alkylation data are presented below in Table 2.
Target sequence in this assay (P01116 1-188 isoform P01116-2 G12C): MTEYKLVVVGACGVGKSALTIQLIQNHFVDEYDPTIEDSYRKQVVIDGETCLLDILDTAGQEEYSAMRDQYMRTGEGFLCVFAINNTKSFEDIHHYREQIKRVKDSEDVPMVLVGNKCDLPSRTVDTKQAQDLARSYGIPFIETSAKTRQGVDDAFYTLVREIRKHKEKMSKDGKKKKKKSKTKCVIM

[2] = biological target: T1, K-Ras G12C; assay: K-Ras G12C, SOS1, Raf RBD HTRF assay for inhibition of GTP exchange; type: biochemical; parameters: K-Ras G12C (residues 2-188) and SOS1 (residues 564-1049) had N-terminal 6-His; made in house; host or cells: E. coli; conditions: 18 hours preincubation with K-Ras G12C at room temperature; SOS1-mediated GTP exchange
Procedure: K-Ras G12C, SOS1, Raf RBD Homogeneous Time Resolved Fluorescence (HTRF) Assay for Inhibition of GTP Exchange
After 18 hours at room temperature, the SOS1 GTP exchange factor (1.67 nM during exchange, 1.25 nM final) was added to initiate nucleotide exchange to GTP (200 μM during exchange, 150 μM final). The level of GTP exchange was assessed by addition of a Ras binding domain derived from C-Raf and the HTRF detection antibodies Tb-anti-FLAG and D2-anti-his (Cis-Bio) at 50 nM, 1 nM and 12.5 nM, respectively. After 2 hours, the ratio of 665 nm to 615 nm emission with 320 nm excitation was measured on an Envision plate reader (Perkin Elmer).
The final reaction volume was 20 μl in a ProxiPlate-384F Plus (Perkin Elmer), in buffer containing 20 mM HEPES, 150 mM NaCl, 1 mM MgCl2, 0.1% BSA, 0.03% Tween-20 and 1 mM DTT. […] HTRF data are presented below in Table 2.
Target sequence in this assay (P01116 2-188 isoform P01116-2 G12C): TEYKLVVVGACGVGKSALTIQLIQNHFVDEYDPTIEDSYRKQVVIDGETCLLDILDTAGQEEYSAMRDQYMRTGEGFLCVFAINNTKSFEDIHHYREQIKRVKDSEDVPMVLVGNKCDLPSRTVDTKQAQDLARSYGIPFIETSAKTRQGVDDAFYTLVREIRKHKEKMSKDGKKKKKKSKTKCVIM

Molecule `C=CC(=O)N1CCN(c2nc(OC[C@@H]3CCCN3C)nc3c2C[C@H](C)[C@@H](c2nc(N)ccc2C(F)(F)F)C3)[C@@H](C)C1` (single isomer, unassigned) [Example 41a] has a pEC50 [1] of 6.06 and a pIC50 [2] of 6.30.

`C=CC(=O)N1CCN(c2ncnc3c2CC[C@@H](c2c(C)c(C)cc4[nH]cnc24)C3)CC1` (single isomer, unassigned) [Example 10a] showed a pIC50 [2] of 4.72.

`C=CC(=O)N1CCN(c2ncnc3c2C[C@H](C)[C@@H](c2nc(N)cc(C)c2C(F)(F)F)C3)CC1` (single isomer, unassigned) [Example 8a] was tested, and the pIC50 [2] was 5.46.

For `C=CC(=O)N1CCN(c2nc(OC[C@@H]3C[C@@H](F)CN3C)nc3c2C[C@@H](C)[C@H](c2nc(N)cc(C)c2C2CC2)C3)[C@@H](C)C1` (single isomer, unassigned) [Example 24b], the pEC50 [1] was 6.31 and the pIC50 [2] was 7.68.

With `C=CC(=O)N1CCN(c2nc(OC[C@@H]3C[C@@H](F)CN3C)nc3c2CC[C@@H](c2cc(O)cc4ccccc24)C3)[C@@H](C)C1` (single isomer, unassigned) [Example 31b] the pEC50 [1] was 5.70 and the pIC50 [2] was 6.60.

In the case of `C=C(F)C(=O)N1CCN(c2nc(OC[C@@H]3CCCN3C)nc3c2CCC(c2cccc4ccccc24)C3)C[C@@H]1CC#N` (single isomer, unassigned) [Example 47d], the pEC50 [1] was 7.52 and the pIC50 [2] was over 8.00.

Work on `C#CC[C@@H]1CN(c2nc(OC[C@@H]3CCCN3C)nc3c2C[C@H](C)[C@@H](c2cccc4c2CCC4)C3)CCN1C(=O)C=C` (single isomer, unassigned) [Example 40c] yielded a pEC50 [1] of 6.00 and a pIC50 [2] of 5.92.

With `C=CC(=O)N1CCN(c2ncnc3c2CCC(c2nc(N)cc(C)c2C(F)(F)F)C3)CC1` (centres unmarked) [Example 26, 1-[4-[7-[6-amino-4-methyl-3-(trifluoromethyl)-2-pyridyl]-5,6,7,8-tetrahydroquinazolin-4-yl]piperazin-1-yl]prop-2-en-1-one] the pEC50 [1] was 5.66 and the pIC50 [2] was 6.57.

`C=CC(=O)N1CCN(c2nc(OC[C@@H]3COC(=O)N3C)nc3c2CC[C@H](c2cc(O)cc4ccccc24)C3)[C@@H](C)C1` (single isomer, unassigned) [Example 57c] was tested, and the pEC50 [1] was 6.08 and the pIC50 [2] was 7.28.

With `C=CC(=O)N1CCN(c2ncnc3c2CC[C@@H](c2nc(N)ccc2C(F)(F)F)C3)CC1` (single isomer, unassigned) [Example 46a] the pIC50 [2] was 5.70.

With `C=CC(=O)N1CCN(c2nc(OC[C@@H]3CCCN3C)nc3c2CC(C)C(c2c(C)ccc4[nH]ncc24)C3)CC1` (stereo partly drawn) [Example 18a, 1-(4-(6-methyl-7-(5-methyl-1H-indazol-4-yl)-2-(((S)-1-methylpyrrolidin-2-yl)methoxy)-5,6,7,8-tetrahydroquinazolin-4-yl)piperazin-1-yl)prop-2-en-1-one] the pEC50 [1] was 6.55 and the pIC50 [2] was 7.62.

`C=CC(=O)N1CCN(c2nc(OC[C@@H]3C[C@@H](F)CN3C)nc3c2C[C@@H](C)[C@H](c2nc(NC)cc(C)c2C(F)(F)F)C3)[C@@H](C)C1` (single isomer, unassigned) [Example 5b] showed a pEC50 [1] of 6.74 and a pIC50 [2] of 7.35.

`C=CC(=O)N1CCN(c2ncnc3c2CC[C@H](c2c(F)c(N)cc(F)c2C(F)(F)F)C3)CC1` (single isomer, unassigned) [Example 13b] was tested, and the pEC50 [1] was 6.16 and the pIC50 [2] was 7.08.

With `C=C(F)C(=O)N1CCN(c2nc(OC[C@@H]3CCCN3C)nc3c2CC[C@@H](c2cc(O)cc4ccccc24)C3)C[C@@H]1CC#N` (single isomer, unassigned) [Example 61e] the pEC50 [1] was 5.82 and the pIC50 [2] was 7.05.

With `C=CC(=O)N1CCN(c2ncnc3c2CC[C@@H](c2c(C)ccc4c2COC4)C3)CC1` (single isomer, unassigned) [Example 9b] the pIC50 [2] was under 4.30.

`C=CC(=O)N1CCN(c2nc(OC[C@@H]3C[C@@H](F)CN3C)nc3c2C[C@H](C)[C@@H](c2nc(N)cc(C)c2C2CC2)C3)[C@@H](C)C1` (single isomer, unassigned) [Example 24a] was tested, and the pIC50 [2] was under 4.30.

For `C=CC(=O)N1CCN(c2nc(OC[C@@H]3CCCN3C)nc3c2C[C@H](C)[C@@H](c2nc(N)cc(C)c2C(F)(F)F)C3)CC1` (single isomer, unassigned) [Example 20b], the pEC50 [1] was 5.68 and the pIC50 [2] was 5.85.

`C=CC(=O)N1CCN(c2nc(OC[C@@H]3CCCN3C)nc3c2CCCC3)CC1` [Example 45a, 1-[4-[2-[[(2S)-1-methylpyrrolidin-2-yl]methoxy]-5,6,7,8-tetrahydroquinazolin-4-yl]piperazin-1-yl]prop-2-en-1-one] was tested, and the pIC50 [2] was under 4.30.

`C=CC(=O)N1CCN(c2ncnc3c2CC[C@@H](c2c(F)c(N)cc(C)c2C(F)(F)F)C3)CC1` (single isomer, unassigned) [Example 27b] showed a pIC50 [2] of 5.52.

Molecule `C=C(F)C(=O)N1CCN(c2nc(OC[C@@H]3CCCN3C)nc3c2CCC(c2cccc4ccccc24)C3)CC1CC#N` (single isomer, unassigned) [Example 47b] has a pIC50 [2] of 5.82.

`C=CC(=O)N1CCN(c2ncnc3c2CC[C@H](c2cccc4c2CCC4)C3)CC1` (single isomer, unassigned) [Example 6a] was tested, and the pIC50 [2] was 5.64.

Work on `C=CC(=O)N1CCN(c2ncnc3c2C[C@H](C)[C@@H](c2nc(N)ccc2C(F)(F)F)C3)CC1` (single isomer, unassigned) [Example 42a] yielded a pIC50 [2] of 5.57.

`C=CC(=O)N1CCN(c2nc(OC[C@@H]3CCCN3C)nc3c2C[C@H](C)[C@@H](c2c(C)c(C)cc(N)c2F)C3)[C@@H](C)C1` (single isomer, unassigned) [Example 11a] was tested, and the pIC50 [2] was 5.89.

With `C=CC(=O)N1CCN(c2nc(OC[C@@H]3COC(=O)N3C)nc3c2CC[C@@H](c2cc(O)cc4ccccc24)C3)[C@@H](C)C1` (single isomer, unassigned) [Example 57b] the pIC50 [2] was 4.85.

`CNC/C=C/C(=O)N1CCN(c2ncnc3c2C[C@H](C)[C@@H](c2c(C)ccc4[nH]ncc24)C3)CC1` (single isomer, unassigned) [Example 19b] was tested, and the pIC50 [2] was under 4.52.

In the case of `C=CC(=O)N1CCN(c2nc(OCc3cn(C)cn3)nc3c2CCC(c2cc(O)cc4ccccc24)C3)[C@@H](C)C1` (stereo partly drawn) [Example 54a, 1-((3S)-4-(7-(3-hydroxynaphthalen-1-yl)-2-((1-methyl-1H-imidazol-4-yl)methoxy)-5,6,7,8-tetrahydroquinazolin-4-yl)-3-methylpiperazin-1-yl)prop-2-en-1-one], the pIC50 [2] was 6.33.

In the case of `C=CC(=O)N1CCN(c2ncnc3c2CC[C@@H](c2c(F)c(N)cc(F)c2C(F)(F)F)C3)CC1` (single isomer, unassigned) [Example 13a], the pIC50 [2] was 5.70.

For `C=CC(=O)N1CCN(c2ncnc3c2C[C@H](C)[C@@H](c2cc(CO)ccc2C)C3)CC1` (single isomer, unassigned) [Example 4a], the pIC50 [2] was under 4.30.

In the case of `C=CC(=O)N1CCN(c2ncnc3c2CC[C@H](c2c(C)ccc4c2COC4)C3)CC1` (single isomer, unassigned) [Example 9a], the pIC50 [2] was 5.38.

With `C=CC(=O)N1CCN(c2nc(OC[C@@H]3C[C@H](F)CN3C)nc3c2CC[C@@H](c2cc(O)cc4ccccc24)C3)[C@@H](C)C1` (single isomer, unassigned) [Example 30b] the pIC50 [2] was 5.92.

`C=CC(=O)N1CCN(c2ncnc3c2CC[C@@H](c2cccc4c2CCC4)C3)CC1` (single isomer, unassigned) [Example 6b] showed a pIC50 [2] of under 4.30.

`C=CC(=O)N1CCN(c2nc(OC[C@@H]3C[C@@H](F)CN3C)nc3c2C[C@H](C)[C@@H](c2nc(NC)cc(C)c2C(F)(F)F)C3)[C@@H](C)C1` (single isomer, unassigned) [Example 5a] gave a pIC50 [2] of under 4.70.

Source: US11760744B2, “Fused ring compounds” (Genentech, Inc., priority 2018, dated 2023)
